Data reported in patent US20120214830A1, “BIOLOGICAL MARKERS PREDICTIVE OF ANTI-CANCER RESPONSE TO INSULIN-LIKE GROWTH FACTOR-1 RECEPTOR KINASE INHIBITORS IN HEPATOCELLULAR CARCINOMA” (OSI Pharmaceuticals, LLC, priority 2011, published 2012).

What was measured:
Test in all cases: Cell Titer-Glo proliferation assay, 72 h
Format in all cases: cell-based
PLC/PRF/5 = conditions: Homo sapiens, PLC/PRF/5 cells
Procedure: (§1) Cell lines: Twenty-one HCC cell lines were purchased from either ATCC (HepG2, Hep3B, PLC/PRF/5, SK-Hepl, SNU-182, SNU-387, SNU-398, SNU-423, SNU-449, SNU-475) or Health Science Research Resources Bank (Japan) (HUH-1, HUH-6, HUH-7, HLE, HLF, JHH-1, JHH-2, JHH-4, JHH-5, JHH-6, JHH-7). All the cell lines were maintained in media as described by the vendors. For growth inhibition assays, cells were plated and allowed to proliferate for 24 hours. After 24 hours, cells had reached approximately 15% confluency, at which time serial dilutions of OSI-906 were added and the cells grown for a further 72 hours. Cell viability was assayed using the Cell Titer-Glo reagent (Promega Corp., Madison, Wis.). Proliferation Assay. Proliferation was assayed using Cell Titer Glo assays (Promega) and was determined 72 hours following dosing with OSI-906. The basis of the assay is a luminescent quantitation of ATP present in a cell culture plate well. In essence, the greater the number of viable cells in the well, the greater the level of ATP present. The assay utilizes a substrate that binds ATP to produce a luminescent signal, which can be read on a luminometer. Unless otherwise noted, the manufacturer's instructions were followed exactly. Briefly, on Day 1, cells were plated in […] of 10% serum-containing growth media at a density of 4000 cells/well in a white polystyrene 96 well assay plate. On day 2, cells were treated with 15 μl of 10× concentration of the IGF-1R inhibitor (e.g. OSI-906) or DMSO alone for a final well volume of 150 μl. After 72 h incubation with the inhibitor, the cells were assayed. Results were calculated as a fraction of the DMSO controlled cells.

SNU-387 = conditions: Homo sapiens, SNU-387 cells
Procedure: as §1

SNU-449 = conditions: Homo sapiens, SNU-449 cells
Procedure: as §1

SNU-398 = conditions: Homo sapiens, SNU-398 cells
Procedure: as §1

Hep G2 = conditions: Homo sapiens, HepG2, Hep G2 cells
Procedure: as §1

Huh-6 = conditions: Homo sapiens, Huh-6 cells
Procedure: as §1

JHH-5 = conditions: Homo sapiens, JHH-5 cells
Procedure: as §1

JHH-4 = conditions: Homo sapiens, JHH-4 cells
Procedure: as §1

SNU-423 = conditions: Homo sapiens, SNU-423 cells
Procedure: as §1

SNU-182 = conditions: Homo sapiens, SNU-182 cells
Procedure: as §1

Huh-7 = conditions: Homo sapiens, Huh-7 cells
Procedure: as §1

HLE = conditions: Homo sapiens, HLE cells
Procedure: as §1

JHH-6 = conditions: Homo sapiens, JHH-6 cells
Procedure: as §1

SNU-475 = conditions: Homo sapiens, SNU-475 cells
Procedure: as §1

JHH-2 = conditions: Homo sapiens, JHH-2 cells
Procedure: as §1

SK Hep-1 = conditions: Homo sapiens, SK-HEP1, SK Hep-1 cells
Procedure: as §1

EC50 (SNU-387; 72 h OSI-906): > 10 µM
EC50 (SNU-449; 72 h OSI-906): > 10 µM
EC50 (SNU-398; 72 h OSI-906): > 10 µM
EC50 (Huh-6; 72 h OSI-906): 0.25 µM
EC50 (SNU-423; 72 h OSI-906): > 10 µM
EC50 (SNU-182; 72 h OSI-906): > 10 µM
EC50 (Huh-7; 72 h OSI-906): 0.37 µM
EC50 (SNU-475; 72 h OSI-906): > 10 µM
SMILES: C[C@]1(O)C[C@@H](c2nc(-c3ccc4ccc(-c5ccccc5)nc4c3)c3c(N)nccn32)C1 [OSI-906, cis-3-[8-amino-1-(2-phenyl-quinolin-7-yl)-imidazo[1,5-a]pyrazin-3-yl]-1-methyl-cyclobutanol]
inhibition at 5 µM (PLC/PRF/5; 5 μM OSI-906, 72 h): < 40%
EC50 (PLC/PRF/5; 72 h OSI-906): > 10 µM
inhibition at 5 µM (SNU-387; 5 μM OSI-906, 72 h): < 40%
inhibition at 5 µM (SNU-449; 5 μM OSI-906, 72 h): < 40%
inhibition at 5 µM (SNU-398; 5 μM OSI-906, 72 h): < 40%
inhibition at 5 µM (Hep G2; 5 μM OSI-906, 72 h): 77%
EC50 (Hep G2; 72 h OSI-906): 0.22 µM
inhibition at 5 µM (Huh-6; 5 μM OSI-906, 72 h): 41%
inhibition at 5 µM (JHH-5; 5 μM OSI-906, 72 h): 80%
EC50 (JHH-5; 72 h OSI-906): 0.19 µM
inhibition at 5 µM (JHH-4; 5 μM OSI-906, 72 h): < 40%
EC50 (JHH-4; 72 h OSI-906): > 10 µM
inhibition at 5 µM (SNU-423; 5 μM OSI-906, 72 h): < 40%
inhibition at 5 µM (SNU-182; 5 μM OSI-906, 72 h): < 40%
inhibition at 5 µM (Huh-7; 5 μM OSI-906, 72 h): 70%
inhibition at 5 µM (HLE; 5 μM OSI-906, 72 h): < 40%
EC50 (HLE; 72 h OSI-906): > 10 µM
inhibition at 5 µM (JHH-6; 5 μM OSI-906, 72 h): < 40%
EC50 (JHH-6; 72 h OSI-906): > 10 µM
inhibition at 5 µM (SNU-475; 5 μM OSI-906, 72 h): < 40%
inhibition at 5 µM (JHH-2; 5 μM OSI-906, 72 h): < 40%
EC50 (JHH-2; 72 h OSI-906): > 10 µM
inhibition at 5 µM (SK Hep-1; 5 μM OSI-906, 72 h): < 40%
EC50 (SK Hep-1; 72 h OSI-906): > 10 µM
